Experiments:
ABUTH [1] = assay: Pre-emergence herbicidal action against ABUTH; format: in vivo, Abutilon theophrasti
Summary of the method: (§1)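 Greenhouse pots of sandy loam held seeds covered with soil, onto which the compound was applied before emergence. An aqueous suspension or emulsion of WP or EC was used at 600 to 800 l/ha with 0.2% wetting agent. Percent damage was judged visually at 3 weeks.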

ALOMY [2] = assay: Pre-emergence herbicidal action against ALOMY; format: in vivo, Alopecurus myosuroides
Summary of the method: as §1

AMARE [3] = assay: Pre-emergence herbicidal action against AMARE; format: in vivo, Amaranthus retroflexus
Summary of the method: as §1

AVEFA [4] = assay: Pre-emergence herbicidal action against AVEFA; format: in vivo, Avena fatua
Summary of the method: as §1

ECHCG [5] = assay: Pre-emergence herbicidal action against ECHCG; format: in vivo, Echinochloa crus-galli; conditions: 80 g/ha
Summary of the method: as §1

LOLRI = assay: Pre-emergence herbicidal action against LOLRI; format: in vivo, Lolium rigidum; conditions: 80 g/ha
Summary of the method: as §1

MATIN = assay: Pre-emergence herbicidal action against MATIN; format: in vivo, Matricaria inodora
Summary of the method: as §1

PHBPU [6] = assay: Pre-emergence herbicidal action against PHBPU; format: in vivo, Pharbitis purpurea
Summary of the method: as §1

POLCO [7] = assay: Pre-emergence herbicidal action against POLCO; format: in vivo, Polygonum convolvulus; conditions: dosage 80 g/ha
Summary of the method: as §1

SETVI [8] = assay: Pre-emergence herbicidal action against SETVI; format: in vivo, Setaria viridis
Summary of the method: as §1

VIOTR [9] = assay: Pre-emergence herbicidal action against VIOTR; format: in vivo, Viola tricolor
Summary of the method: as §1

DIGSA [10] = assay: Pre-emergence herbicidal action against DIGSA; format: in vivo, Digitaria sanguinalis
Summary of the method: as §1

ABUTH [11] = assay: Post-emergence herbicidal action against ABUTH; format: in vivo, Abutilon theophrasti; conditions: dosage 20 g/ha, visual assessment about 3 weeks after treatment vs untreated controls
Summary of the method: (§2)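 A WP or EC formulation diluted in water with 0.2% wetting agent was sprayed at 600 to 800 l/ha onto one-leaf-stage plants grown in sandy loam. About 3 weeks later, action was rated visually in percent, 100% being dead plants.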

ALOMY [12] = assay: Post-emergence herbicidal action against ALOMY; format: in vivo, Alopecurus myosuroides; conditions: visual assessment about 3 weeks after treatment vs untreated controls
Summary of the method: as §2

AMARE [13] = assay: Post-emergence herbicidal action against AMARE; format: in vivo, Amaranthus retroflexus; conditions: 20 g/ha, visual assessment about 3 weeks after treatment, 100% = plants have died, 0% = like control plants
Summary of the method: as §2

AVEFA [14] = assay: Post-emergence herbicidal action against AVEFA; format: in vivo, Avena fatua; conditions: 20 g/ha, visual assessment about 3 weeks after treatment, 100% = plants have died, 0% = like control plants
Summary of the method: as §2

ECHCG [15] = assay: Post-emergence herbicidal action against ECHCG; format: in vivo, Echinochloa crus-galli
Summary of the method: as §2

PHBPU [16] = assay: Post-emergence herbicidal action against PHBPU; format: in vivo, Pharbitis purpurea
Summary of the method: as §2

POLCO [17] = assay: Post-emergence herbicidal action against POLCO; format: in vivo, Polygonum convolvulus; conditions: dosage 20 g/ha
Summary of the method: as §2

SETVI [18] = assay: Post-emergence herbicidal action against SETVI; format: in vivo, Setaria viridis
Summary of the method: as §2

VERPE = assay: Post-emergence herbicidal action against VERPE; format: in vivo, Veronica persica; conditions: 20 g/ha
Summary of the method: as §2

VIOTR [19] = assay: Post-emergence herbicidal action against VIOTR; format: in vivo, Viola tricolor
Summary of the method: as §2

DIGSA [20] = assay: Post-emergence herbicidal action against DIGSA; format: in vivo, Digitaria sanguinalis
Summary of the method: as §2

[21] = 80 g/ha, scored visually after 3 weeks vs untreated controls (100% = plants have died, 0% = like control plants)
[22] = 20 g/ha, scored visually after 3 weeks, 100% = plants have died, 0% = like control plants

Cn1nnnc1NC(=O)c1ccc(C(F)(F)F)c(C(=O)NCC(F)F)c1Br [Example 1-212]
80%: Pre-emergence action against ABUTH (herbicidal activity in percent) (ABUTH [1]; dosage 20 g/ha, scored visually after 3 weeks vs untreated controls, 100% = plants have died, 0% = like control plants) | Pre-emergence action against AVEFA (AVEFA [4]; [22]) | Pre-emergence action against LOLRI in % (LOLRI) | Pre-emergence action against PHBPU in % (PHBPU [6]; dosage 20 g/ha) | Pre-emergence action against PHBPU in % (PHBPU [6]; dosage 80 g/ha) | Pre-emergence action against POLCO in % (POLCO [7]) | Pre-emergence action against SETVI in % (SETVI [8]; dosage 20 g/ha) | Post-emergence action against ABUTH in % (ABUTH [11]) | Post-emergence action against ALOMY in % (ALOMY [12]; dosage 5 g/ha) | Post-emergence action at 20 g/ha against AVEFA in % (AVEFA [14]) | Post-emergence action against ECHCG in % (ECHCG [15]; dosage 5 g/ha) | Post-emergence action against ECHCG in % (ECHCG [15]; dosage 20 g/ha) | Post-emergence action against PHBPU in % (PHBPU [16]; dosage 5 g/ha) | Post-emergence action against SETVI in % (SETVI [18]; dosage 5 g/ha) | Post-emergence action against VERPE in % (VERPE) | Post-emergence action against VIOTR in % (VIOTR [19]; 5 g/ha)
90%: Pre-emergence action against AVEFA in % (AVEFA [4]; 80 g/ha, pre-emergence) | Pre-emergence action against MATIN in % (MATIN; dosage 20 g/ha) | Post-emergence action against ALOMY in % (ALOMY [12]; dosage 20 g/ha) | Post-emergence action against PHBPU in % (PHBPU [16]; dosage 20 g/ha) | Post-emergence action against SETVI in % (SETVI [18]; dosage 20 g/ha) | Post-emergence action against VIOTR in % (VIOTR [19]; 20 g/ha) | Post-emergence action against DIGSA in % (DIGSA [20]; 5 g/ha)
100%: Pre-emergence action against ABUTH (herbicidal activity) (ABUTH [1]; [21]) | Pre-emergence action against ALOMY (ALOMY [2]; [22]) | Pre-emergence action against ALOMY (herbicidal activity) (ALOMY [2]; 80 g/ha, pre-emergence, scored visually after 3 weeks vs untreated controls (100% = plants have died, 0% = like control plants)) | Pre-emergence action against AMARE in % (AMARE [3]; 20 g/ha, scored visually after 3 weeks vs untreated controls, 100% = plants have died, 0% = like control plants) | Pre-emergence action against AMARE in % (AMARE [3]; [21]) | Pre-emergence action against ECHCG in % (ECHCG [5]) | Pre-emergence action against MATIN in % (MATIN; dosage 80 g/ha) | Pre-emergence action against SETVI in % (SETVI [8]; dosage 80 g/ha) | Pre-emergence action against VIOTR in % (VIOTR [9]; dosage 20 g/ha) | Pre-emergence action against VIOTR in % (VIOTR [9]; dosage 80 g/ha) | Pre-emergence action against DIGSA in % (DIGSA [10]; dosage 20 g/ha) | Pre-emergence action against DIGSA in % (DIGSA [10]; dosage 80 g/ha) | Post-emergence action at 20 g/ha against AMARE in % (AMARE [13]) | Post-emergence action against POLCO in % (POLCO [17]) | Post-emergence action against DIGSA (DIGSA [20]; 20 g/ha)
